In brackets after ≈: the same amount, converted by molar mass.
Tested on: not listed separately
Experiment: AUClast in BALB/c mouse at 5 mg/kg, iv
Type: ADME, organism-based
Set-up: dose 5 mg/kg, route intravenous, time 0 - last
Conditions: plasma

Row | Compound | AUC(0-t) [ng·h/mL]
1 | Cc1cc2nc(-c3nccs3)n(-c3ccc4c(N)nc(N)nc4c3)c2cc1C | 2400

Tested on: not listed separately
Experiment: Apparent volume of distribution in BALB/c mouse at 5 mg/kg, iv
Type: ADME, organism-based
Set-up: dose 5 mg/kg, route intravenous
Conditions: in vivo, read-out: Vz

Row | Compound | Vd [L/kg]
2 | Cc1cc2nc(-c3nccs3)n(-c3ccc4c(N)nc(N)nc4c3)c2cc1C | 4.4

Target: Dihydrofolate reductase (Staphylococcus aureus, UniProt P0A017)
Experiment: Inhibition of Staphylococcus aureus DHFR using dihydrofolate as substrate preincubated for 10 mins followed by substrate addition by spectrophotometric analysis in presence of NADPH
Conditions: not given

Sequence of Dihydrofolate reductase (Staphylococcus aureus, UniProt P0A017) (P0A017 whole entry): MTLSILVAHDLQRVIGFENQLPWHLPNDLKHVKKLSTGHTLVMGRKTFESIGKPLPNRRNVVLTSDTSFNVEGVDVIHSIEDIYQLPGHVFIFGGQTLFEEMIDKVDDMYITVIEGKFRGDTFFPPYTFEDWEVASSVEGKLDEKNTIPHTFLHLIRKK

Row | Compound | Ki [nM]
3 | Cc1cc2nc(-c3cccnc3)n(-c3ccc4c(N)nc(N)nc4c3)c2cc1C | 0.26
4 | Cc1cc2nc(C3CCCO3)n(-c3ccc4c(N)nc(N)nc4c3)c2cc1C (centres undefined) | 0.2
5 | Cc1cc2ncn(-c3ccc4c(N)nc(N)nc4c3)c2cc1C | 1.7
6 | COc1ccc(-c2nc3cc(C)c(C)cc3n2-c2ccc3c(N)nc(N)nc3c2)cc1 | 0.34
7 | Cc1cc2nc(-c3ccoc3)n(-c3ccc4c(N)nc(N)nc4c3)c2cc1C | 0.008
8 | Cc1cc2nc(-c3ccco3)n(-c3ccc4c(N)nc(N)nc4c3)c2cc1C | 0.007

Tested on: Streptococcus pneumoniae
Experiment: Antibacterial activity against Streptococcus pneumoniae ATCC 700677 after 18 to 24 hrs by alamar Blue assay
Type: functional
Conditions: not given

Row | Compound | MIC [µg/mL]
9 | Cc1cc2nc(-c3nccs3)n(-c3ccc4c(N)nc(N)nc4c3)c2cc1C | ≤ 0.5

Tested on: Streptococcus pneumoniae
Experiment: Antibacterial activity against Streptococcus pneumoniae ATCC 51916 after 18 to 24 hrs by alamar Blue assay
Type: functional
Conditions: not given

Row | Compound | MIC [µg/mL]
10 | Cc1cc2nc(-c3nccs3)n(-c3ccc4c(N)nc(N)nc4c3)c2cc1C | ≤ 0.5

Tested on: Streptococcus pneumoniae
Experiment: Antibacterial activity against Streptococcus pneumoniae ATCC 700904 after 18 to 24 hrs by alamar Blue assay
Type: functional
Conditions: not given

Row | Compound | MIC [µg/mL]
11 | Cc1cc2nc(-c3nccs3)n(-c3ccc4c(N)nc(N)nc4c3)c2cc1C | 4 (≈ 10.3 µM)

Tested on: Streptococcus pneumoniae
Experiment: Antibacterial activity against Streptococcus pneumoniae ATCC 700675 after 18 to 24 hrs by alamar Blue assay
Type: functional
Conditions: not given

Row | Compound | MIC [µg/mL]
12 | Cc1cc2nc(-c3nccs3)n(-c3ccc4c(N)nc(N)nc4c3)c2cc1C | ≤ 0.5

Tested on: not listed separately
Experiment: Selectivity ratio of Ki for human DHFR to Ki for Staphylococcus aureus DHFR
Conditions: not given

Row | Compound | Ratio Ki
13 | Cc1cc2nc(-c3cccnc3)n(-c3ccc4c(N)nc(N)nc4c3)c2cc1C | > 1250
14 | Cc1cc2nc(-c3ccoc3)n(-c3ccc4c(N)nc(N)nc4c3)c2cc1C | 90000

Tested on: Staphylococcus aureus
Experiment: Ratio of iclaprim MIC to compound MIC for TMP-resistant Staphylococcus aureus expressing DHFR F99Y mutant
Type: functional
Conditions: not given

Row | Compound | Ratio
15 | Cc1cc2nc(-c3nccs3)n(-c3ccc4c(N)nc(N)nc4c3)c2cc1C | 8

Tested on: not listed separately
Experiment: Terminal half life in BALB/c mouse at 5 mg/kg, iv
Type: ADME, organism-based
Set-up: dose 5 mg/kg, route intravenous
Conditions: in vivo, read-out: beta t1/2 (converted)

Row | Compound | half-life [h]
16 | Cc1cc2nc(-c3nccs3)n(-c3ccc4c(N)nc(N)nc4c3)c2cc1C | 1.4

Tested on: Streptococcus pneumoniae
Experiment: Antibacterial activity against Streptococcus pneumoniae after 18 to 24 hrs by alamar Blue assay
Type: functional
Conditions: not given

Row | Compound | MIC50 [µg/mL] | MIC90 [µg/mL]
17 | Cc1cc2nc(-c3nccs3)n(-c3ccc4c(N)nc(N)nc4c3)c2cc1C | ≤ 0.5 | 8 (≈ 20.6 µM)

Target: T1, Dihydrofolate reductase (Homo sapiens, UniProt P00374)
T1 sequence (P00374 whole entry): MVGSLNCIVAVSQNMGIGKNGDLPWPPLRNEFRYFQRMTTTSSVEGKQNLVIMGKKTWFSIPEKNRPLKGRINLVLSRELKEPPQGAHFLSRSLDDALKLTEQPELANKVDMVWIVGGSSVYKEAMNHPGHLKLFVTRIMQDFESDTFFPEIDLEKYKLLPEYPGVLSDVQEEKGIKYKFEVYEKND
Experiment: Inhibition of human DHFR using dihydrofolate as substrate preincubated for 10 mins followed by substrate addition by spectrophotometric analysis in presence of NADPH
Conditions: not given

Row | Compound | Ki [nM]
18 | Cc1cc2nc(-c3cccnc3)n(-c3ccc4c(N)nc(N)nc4c3)c2cc1C | 1560
19 | Cc1cc2nc(C3CCCO3)n(-c3ccc4c(N)nc(N)nc4c3)c2cc1C (centres undefined) | 749
20 | Cc1cc2ncn(-c3ccc4c(N)nc(N)nc4c3)c2cc1C | 1610
21 | COc1ccc(-c2nc3cc(C)c(C)cc3n2-c2ccc3c(N)nc(N)nc3c2)cc1 | 2300
22 | Cc1cc2nc(-c3ccoc3)n(-c3ccc4c(N)nc(N)nc4c3)c2cc1C | 723
23 | Cc1cc2nc(-c3ccco3)n(-c3ccc4c(N)nc(N)nc4c3)c2cc1C | 943

Tested on: Streptococcus pneumoniae
Experiment: Antibacterial activity against Streptococcus pneumoniae ATCC 700676 after 18 to 24 hrs by alamar Blue assay
Type: functional
Conditions: not given

Row | Compound | MIC [µg/mL]
24 | Cc1cc2nc(-c3nccs3)n(-c3ccc4c(N)nc(N)nc4c3)c2cc1C | ≤ 0.5

Tested on: Streptococcus pneumoniae
Experiment: Antibacterial activity against Streptococcus pneumoniae ATCC BAA-255 after 18 to 24 hrs by alamar Blue assay
Type: functional
Conditions: not given

Row | Compound | MIC [µg/mL]
25 | Cc1cc2nc(-c3nccs3)n(-c3ccc4c(N)nc(N)nc4c3)c2cc1C | ≤ 0.5

Tested on: Streptococcus pneumoniae
Experiment: Antibacterial activity against Streptococcus pneumoniae ATCC 700669 after 18 to 24 hrs by alamar Blue assay
Type: functional
Conditions: not given

Row | Compound | MIC [µg/mL]
26 | Cc1cc2nc(-c3nccs3)n(-c3ccc4c(N)nc(N)nc4c3)c2cc1C | 8 (≈ 20.6 µM)

Tested on: Streptococcus pneumoniae
Experiment: Antibacterial activity against Streptococcus pneumoniae ATCC 700674 after 18 to 24 hrs by alamar Blue assay
Type: functional
Conditions: not given

Row | Compound | MIC [µg/mL]
27 | Cc1cc2nc(-c3nccs3)n(-c3ccc4c(N)nc(N)nc4c3)c2cc1C | 8 (≈ 20.6 µM)

Tested on: not listed separately
Experiment: Plasma concentration in BALB/c mouse at 5 mg/kg, iv measured at 2 mins by LC-MS/MS analysis
Type: ADME, organism-based
Set-up: dose 5 mg/kg, route intravenous
Conditions: not given

Row | Compound | concentration at 2 min [ng/mL]
28 | Cc1cc2nc(-c3nccs3)n(-c3ccc4c(N)nc(N)nc4c3)c2cc1C | 12700

Tested on: not listed separately
Experiment: Total clearance in BALB/c mouse at 5 mg/kg, iv
Type: ADME, organism-based
Set-up: dose 5 mg/kg, route intravenous
Conditions: in vivo

Row | Compound | clearance [mL/min/kg]
29 | Cc1cc2nc(-c3nccs3)n(-c3ccc4c(N)nc(N)nc4c3)c2cc1C | 35

Tested on: Staphylococcus aureus
Experiment: Antibacterial activity against TMP-resistant Staphylococcus aureus expressing DHFR F99Y mutant after 18 to 24 hrs by alamar Blue assay
Type: functional
Conditions: not given

Row | Compound | MIC [µg/mL]
30 | Cc1cc2nc(-c3cccnc3)n(-c3ccc4c(N)nc(N)nc4c3)c2cc1C | 32 (≈ 83.9 µM)
31 | Cc1cc2nc(C3CCCO3)n(-c3ccc4c(N)nc(N)nc4c3)c2cc1C (centres undefined) | 16 (≈ 42.7 µM)
32 | Cc1cc2ncn(-c3ccc4c(N)nc(N)nc4c3)c2cc1C | > 64
33 | COc1ccc(-c2nc3cc(C)c(C)cc3n2-c2ccc3c(N)nc(N)nc3c2)cc1 | > 64
34 | Cc1cc2nc(-c3ccoc3)n(-c3ccc4c(N)nc(N)nc4c3)c2cc1C | 2 (≈ 5.4 µM)
35 | Cc1cc2nc(-c3ccco3)n(-c3ccc4c(N)nc(N)nc4c3)c2cc1C | 1 (≈ 2.7 µM)
36 | Cc1cc2nc(-c3nccs3)n(-c3ccc4c(N)nc(N)nc4c3)c2cc1C | 0.25 (≈ 0.645 µM)

Tested on: Streptococcus pneumoniae
Experiment: Antibacterial activity against Streptococcus pneumoniae ATCC 700671 after 18 to 24 hrs by alamar Blue assay
Type: functional
Conditions: not given

Row | Compound | MIC [µg/mL]
37 | Cc1cc2nc(-c3nccs3)n(-c3ccc4c(N)nc(N)nc4c3)c2cc1C | 32 (≈ 82.6 µM)

Tested on: Staphylococcus aureus
Experiment: animal or person
Conditions: ATCC 13709, in Mus musculus, iv, 24 h, read-out: PD50
Description: Antibacterial activity against Staphylococcus aureus ATCC 13709 infected in iv dosed BALB/c mouse septicemia model assessed as protection from lethal infection after 24 hrs

Row | Compound | ED50 [mg/kg]
38 | Cc1cc2nc(-c3nccs3)n(-c3ccc4c(N)nc(N)nc4c3)c2cc1C | 2

Tested on: Streptococcus pneumoniae
Experiment: Antibacterial activity against Streptococcus pneumoniae ATCC 49619 after 18 to 24 hrs by alamar Blue assay
Type: functional
Conditions: not given

Row | Compound | MIC [µg/mL]
39 | Cc1cc2nc(-c3nccs3)n(-c3ccc4c(N)nc(N)nc4c3)c2cc1C | 0.25 (≈ 0.645 µM)

Tested on: Staphylococcus aureus
Experiment: Antibacterial activity against Staphylococcus aureus ATCC 13709 after 18 to 24 hrs by alamar Blue assay in presence of 20% heat inactivated mouse serum
Type: functional
Conditions: not given

Row | Compound | MIC [µg/mL]
40 | Cc1cc2nc(-c3cccnc3)n(-c3ccc4c(N)nc(N)nc4c3)c2cc1C | 2
41 | Cc1cc2nc(C3CCCO3)n(-c3ccc4c(N)nc(N)nc4c3)c2cc1C (centres undefined) | > 16
42 | Cc1cc2ncn(-c3ccc4c(N)nc(N)nc4c3)c2cc1C | 32
43 | COc1ccc(-c2nc3cc(C)c(C)cc3n2-c2ccc3c(N)nc(N)nc3c2)cc1 | 8
44 | Cc1cc2nc(-c3ccoc3)n(-c3ccc4c(N)nc(N)nc4c3)c2cc1C | 1
45 | Cc1cc2nc(-c3ccco3)n(-c3ccc4c(N)nc(N)nc4c3)c2cc1C | 0.125
46 | Cc1cc2nc(-c3nccs3)n(-c3ccc4c(N)nc(N)nc4c3)c2cc1C | 0.125

Tested on: Staphylococcus aureus
Experiment: Antibacterial activity against Staphylococcus aureus ATCC 13709 after 18 to 24 hrs by alamar Blue assay
Type: functional
Conditions: not given

Row | Compound | MIC [µg/mL]
47 | Cc1cc2nc(-c3cccnc3)n(-c3ccc4c(N)nc(N)nc4c3)c2cc1C | 0.5 (≈ 1.31 µM)
48 | Cc1cc2nc(C3CCCO3)n(-c3ccc4c(N)nc(N)nc4c3)c2cc1C (centres undefined) | 0.5 (≈ 1.34 µM)
49 | Cc1cc2ncn(-c3ccc4c(N)nc(N)nc4c3)c2cc1C | 2 (≈ 6.57 µM)
50 | COc1ccc(-c2nc3cc(C)c(C)cc3n2-c2ccc3c(N)nc(N)nc3c2)cc1 | 2 (≈ 4.87 µM)
51 | Cc1cc2nc(-c3ccoc3)n(-c3ccc4c(N)nc(N)nc4c3)c2cc1C | 0.06 (≈ 0.162 µM)
52 | Cc1cc2nc(-c3ccco3)n(-c3ccc4c(N)nc(N)nc4c3)c2cc1C | 0.015 (≈ 0.0405 µM)
53 | Cc1cc2nc(-c3nccs3)n(-c3ccc4c(N)nc(N)nc4c3)c2cc1C | 0.015 (≈ 0.0387 µM)
